Source: the supplement of paper PMC10307832

Key:
Assay in all cases: relative viability (nuclei count vs DMSO), 5 days (fraction); higher = more cells survive
Lestaurtinib + Olaparib = compound: C[C@]12O[C@H](C[C@]1(O)CO)n1c3ccccc3c3c4c(c5c6ccccc6n2c5c31)CNC4=O [Lestaurtinib] + O=C(c1cc(Cc2n[nH]c(=O)c3ccccc23)ccc1F)N1CCN(C(=O)C2CC2)CC1 [Olaparib] (partner 8 µM)
In short: (§1)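 Five library-drug doses in √10 steps were combined with a fixed anchor-drug dose, or a single drug was given alone, by pin tool to lung cancer cell lines in 1536-well plates the day after seeding. Nuclei were stained and counted after 5 days. Relative viability is the nuclei count in treated wells over that in vehicle wells, taken as the median of duplicate plates.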

[1] = compound: C[C@]12O[C@H](C[C@]1(O)CO)n1c3ccccc3c3c4c(c5c6ccccc6n2c5c31)CNC4=O [Lestaurtinib] + N=C(N)NC(=N)NCCc1ccccc1 [Phenformin] (partner 250 µM)
In short: as §1

[2] = compound: C1/C(=C\C2=CC=CS2)/C(=O)/C(=C/C3=CC=CS3)/C1 + CC(=O)Nc1cccc(-n2c(=O)n(C3CC3)c(=O)c3c(Nc4ccc(I)cc4F)n(C)c(=O)c(C)c32)c1 [Trametinib] (partner 0.02 µM)
In short: as §1

[3] = compound: C[C@]12O[C@H](C[C@]1(O)CO)n1c3ccccc3c3c4c(c5c6ccccc6n2c5c31)CNC4=O [Lestaurtinib] + CC1(C)CCC(c2ccc(Cl)cc2)=C(CN2CCN(c3ccc(C(=O)NS(=O)(=O)c4ccc(N[C@H](CCN5CCOCC5)CSc5ccccc5)c(S(=O)(=O)C(F)(F)F)c4)cc3)CC2)C1 [Navitoclax] (partner 0.5 µM)
In short: as §1

Cell Line | relative viability (Lestaurtinib + Olaparib; first compound 0.005 µM) | relative viability (Lestaurtinib + Olaparib; first compound 0.01581 µM) | relative viability (Lestaurtinib + Olaparib; first compound 0.05 µM) | relative viability (Lestaurtinib + Olaparib; first compound 0.1581 µM) | relative viability (Lestaurtinib + Olaparib; first compound 0.5 µM) | relative viability ([1]; first compound 0.005 µM) | relative viability ([1]; first compound 0.01581 µM) | relative viability ([1]; first compound 0.05 µM) | relative viability ([1]; first compound 0.1581 µM) | relative viability ([1]; first compound 0.5 µM) | relative viability ([2]; first compound 0.2 µM) | relative viability ([2]; first compound 0.6325 µM) | relative viability ([2]; first compound 2 µM) | relative viability ([2]; first compound 20 µM) | relative viability ([3]; first compound 0.005 µM) | relative viability ([3]; first compound 0.01581 µM) | relative viability ([3]; first compound 0.05 µM) | relative viability ([3]; first compound 0.1581 µM) | relative viability ([3]; first compound 0.5 µM) | relative viability ([2]; first compound 6.325 µM)
NCI-H1944 | 0.437 | 0.479 | 0.34 | 0.419 | 0.344 | 0.194 | 0.209 | 0.164 | 0.133 | 0.132 | 0.393 | 0.421 | 0.424 | 0.388 | 1.12 | 1.01 | 0.956 | 0.673 | 0.638 | 
NCI-H1975 | 0.802 | 0.856 | 0.651 | 0.757 | 0.408 | 0.464 | 0.44 | 0.363 | 0.353 | 0.275 | 0.345 | 0.326 | 0.282 | 0.362 | 1.25 | 1.23 | 1.03 | 0.666 | 0.473 | 0.321
NCI-H1993 | 0.76 | 1.16 | 1.14 | 1.04 | 0.463 | 0.559 | 0.547 | 0.527 | 0.457 | 0.486 | 0.491 | 0.412 | 0.478 | 0.447 | 1.16 | 0.991 | 0.846 | 0.632 | 0.7 | 0.437
NCI-H2009 | 0.589 | 0.754 | 0.577 | 0.843 | 0.473 | 0.51 | 0.46 | 0.437 | 0.465 | 0.235 | 0.284 | 0.308 | 0.317 | 0.272 | 1.16 | 1.25 | 1.06 | 1.3 | 0.22 | 
NCI-H2023 | 0.519 | 0.493 | 0.578 | 0.364 | 0.18 | 0.451 | 0.451 | 0.343 | 0.344 | 0.144 | 0.629 | 0.546 | 0.684 | 0.555 | 1.13 | 1.06 | 0.875 | 0.88 | 0.252 | 0.511
NCI-H2085 | 0.804 | 0.755 | 0.835 | 0.935 | 0.84 | 0.716 | 0.664 | 0.602 | 0.65 | 0.492 | 0.516 | 0.513 | 0.545 | 0.538 | 1.15 | 1.36 | 1.1 | 1.27 | 0.979 | 0.635
NCI-H2087 | 0.589 | 0.725 | 0.559 | 0.673 | 0.309 | 0.462 | 0.44 | 0.43 | 0.416 | 0.344 | 0.201 | 0.17 | 0.18 | 0.294 | 0.946 | 0.853 | 0.686 | 0.707 | 0.26 | 0.157
NCI-H2126 | 1.03 | 0.971 | 0.812 | 0.852 | 0.842 | 0.525 | 0.565 | 0.482 | 0.412 | 0.326 | 0.554 | 0.586 | 0.576 | 0.585 | 0.924 | 0.914 | 0.854 | 0.632 | 0.75 | 0.502
